Values joined by “and” are separate entries in the source; they are usually repeats but may differ in a detail not shown here. Identical values can stand only once. “Also recorded” adds a separate entry of the source.
Key:
[1] = plasma protein binding by the ultrafiltration method; type: in vitro ADME, baboon (Papio anubis)
[2] = reversed phase HPLC analysis of components of plasma radioactivity; type: in vivo, baboon (Papio anubis)
[3] = type: in vivo, baboon (Papio anubis)
serotonin transporters = assay: SPECT binding potential; type: in vivo, baboon (Papio anubis)
5-HT transporter = settings: cited from earlier work
dopamine transporter = settings: cited from earlier work
[4] = 0.5 mg/kg IV at 8 h post-radiotracer, n=2
[5] = 3 min after injection, arterial plasma
[6] = 5 min after injection, arterial plasma
[7] = 10 min after injection, arterial plasma
[8] = 30 min after injection, arterial plasma
[9] = 60 min after injection, arterial plasma
[10] = 120 min after injection, arterial plasma
[11] = 180 min after injection, arterial plasma
[12] = 360 min after injection, arterial plasma
[13] = MRTM2 analysis, bolus only study, first animal
[14] = average of equilibrium scans prior to displacement, same animal as MRTM2

Structure (SMILES): COC(=O)C(c1ccccc1)C1CCCCN1 (centres unmarked) [Methylphenidate, methylphenidate]
- Percent Displacement in [123I]p ZIENT (BPND), Basal Ganglia (serotonin transporter; [4]): -4%
- Percent Displacement in [123I]p ZIENT (BPND), Brainstem (serotonin transporter; [4]): -11%
- Percent Displacement in [123I]p ZIENT (BPND), Diencephalon (serotonin transporter; [4]): -5%
- Percent Displacement in [123I]p ZIENT (BPND), Hippocampus (serotonin transporter; [4]): -8%
- Percent Displacement in [123I]p ZIENT (BPND), Temporal Cortex (serotonin transporter; [4]): -1%
- displacement of [123I]p ZIENT in all regions studied, in words (serotonin transporter; IV at 8 h post-radiotracer, fluoxetine 1.5, 2.5, citalopram 5, methylphenidate 0.5, nisoxetine 1 mg/kg): no significant changes

Structure (SMILES): COC(=O)C1C2CCC(CC1c1ccc(/C=C\I)cc1)N2 (stereo not drawn) [[^123I]p ZIENT, 2β-carbomethoxy-3β-(4′-((Z)-2-iodoethenyl)phenyl)nortropane]
- protein bound in plasma ([1]; first of the two baboons): 93.1± 0.3% and 93%
- protein bound in plasma ([1]; second of the two baboons): 89.8 ± 0.7% and 90%
- Relative proportion of plasma radioactivity, Parent Compound ([2]; 1 min after injection, arterial plasma): 69%
- Relative proportion of plasma radioactivity, Parent Compound [2, 5]: 69%
- Relative proportion of plasma radioactivity, Polar Fraction (metabolite) [2, 5]: 5%
- combined two polar metabolite fractions as percent of total plasma activity ([2]; 3 min post-injection): 31%
- Relative proportion of plasma radioactivity, Parent Compound [2, 6]: 65%
- Relative proportion of plasma radioactivity, Polar Fraction (metabolite) [2, 6]: 10%
- Relative proportion of plasma radioactivity, Parent Compound [2, 7]: 43%
- Relative proportion of plasma radioactivity, Polar Fraction (metabolite) [2, 7]: 41%
- Relative proportion of plasma radioactivity, Parent Compound [2, 8]: 16%
- Relative proportion of plasma radioactivity, Polar Fraction (metabolite) [2, 8]: 78%
- Relative proportion of plasma radioactivity, Parent Compound [2, 9]: 10%
- Relative proportion of plasma radioactivity, Polar Fraction (metabolite) [2, 9]: 87%
- Relative proportion of plasma radioactivity, Parent Compound [2, 10]: 5%
- Relative proportion of plasma radioactivity, Polar Fraction (metabolite) [2, 10]: 94%
- Relative proportion of plasma radioactivity, Parent Compound [2, 11]: 4%
- Relative proportion of plasma radioactivity, Polar Fraction (metabolite) [2, 11]: 95%
- combined two polar metabolite fractions as percent of total plasma activity ([2]; 180 min post-injection): 96%
- Relative proportion of plasma radioactivity, Parent Compound [2, 12]: 3%
- Relative proportion of plasma radioactivity, Polar Fraction (metabolite) [2, 12]: 96%
- time of peak level of radioactivity in arterial plasma ([2]; after bolus injection): 4 to 7 min
- time of peak of the transient fraction ([2]; arterial plasma): 3 to 5 min
- unmetabolized parent as proportion of plasma radioactivity ([2]; at the time of peak level of radioactivity in arterial plasma (4-7 min)): 69%
- lipophilic radiolabeled metabolites entering the brain ([2]; baboon arterial plasma, HPLC): no detection; also recorded: detected no radiometabolites that are capable of entering the brain
- transient fraction at its peak, proportion of plasma radioactivity ([2]; peak at 3-5 min): 26%
- time of peak whole brain uptake ([3]; bolus IV injection): 74 min
- whole brain uptake, percent of injected dose ([3]; bolus IV injection, at peak (74 min)): 2.3%
- time at which equilibrium was established ([3]; bolus to constant infusion at a ratio of 9.0 h): 4 to 8 h
- change per hour at equilibrium ([3]; bolus to constant infusion, between 4-8 h): < 5%
- BPND basal ganglia (serotonin transporters; [13]): 0.97
- BPND brainstem (serotonin transporters; [13]): 1.34
- BPND diencephalon (serotonin transporters; [13]): 1.48
- BPND hippocampus (serotonin transporters; [13]): 0.49
- BPND temporal cortex (serotonin transporters; [13]): 0.39
- BPND basal ganglia (serotonin transporters; [14]): 0.81
- BPND brainstem (serotonin transporters; [14]): 1.34
- BPND diencephalon (serotonin transporters; [14]): 1.04
- BPND hippocampus (serotonin transporters; [14]): 0.82
- BPND temporal cortex (serotonin transporters; [14]): 0.22
- BPND basal ganglia (serotonin transporters; second animal): 2.9
- BPND brainstem (serotonin transporters; second animal): 4.32
- BPND diencephalon (serotonin transporters; second animal): 3.83
- BPND hippocampus (serotonin transporters; second animal): 2.07
- BPND temporal cortex (serotonin transporters; second animal): 1.28
- SERT binding affinity (5-HT transporter): ~0.05 nM
- specificity for binding to the 5-HT transporter compared to the dopamine transporter (dopamine transporter): 100 fold
